Earlier results as cited in patent publication US8618066B1 (priority 2003, dated 2013).
Entries after “also recorded” stand apart in the source; their conditions may differ. Where two headings read alike, the source gives them in different places. No end group written: not given here.

Test system: Gram+ & Gram− bacteria, fungi, virus, mammalian/cancer cells
Details: cited from earlier work
[1] = classes of organisms/cells the peptide is active against

## Dhvar5: peptide, source Synthesis (LLLFLLKKRKKRKY; Synthesis dhvar5)
[1]
  Activity: Gram+ & Gram−, Fungi

## Seminalplasmin: peptide, source Bovine (SDEKASPDKHHRFSLSRYAKLANRLANPKLLETFLSKWIGDRGNRSVK; Seminalplasmin; listed as Bos taurus)
  Activity: Gram+ & Gram−, Fungi,; also recorded: Mammalian cells

## Gomesin: peptide, source Synthetic (QCRRLCYKQRCVTYCRGR; Synthetic Gomesin)
[1]
  Activity: Gram+ & Gram−, Fungi,; also recorded: Mammalian cells

## Parabutoporin: peptide, source Scorpion (FKLGSFLKKAWKSKLAKKLRAKGKEMLKDYAKGLLEGGSEEVPGQ; Parabutoporin; listed as Parabuthus schlechteri)
[1]
  Activity: Gram+ & Gram−, Fungi,; also recorded: Mammalian cells

## Tritrpticin: peptide, source Synthetic (VRRFPWWWPFLRR; Synthetic Tritrpticin)
  Activity: Gram+ & Gram−, Fungi

## FRLHF [SEQ ID No. 199]
  Activity: Gram+ & Gram−, Fungi

## SEQ ID No. 176: synthetic antifungal peptide, Table 1 (CYRFTW)
  Activity: Fungi

## FRLKFHF [SEQ ID No. 197]
  Activity: Gram+ & Gram−, Fungi

## HNP-6 Defensin: peptide, source Human (STRAFTCHCRRSCYSTEYSYGTCTVMGINHRFCCL; HNP-6 Defensin; listed as Homo sapiens)
  Activity: Gram+ & Gram−, Fungi

## SEQ ID No. 45: synthetic antifungal peptide, Table 1 (TFKLRF)
  Activity: Fungi

## Buforin I: peptide, source Asian toad (AGRGKQGGKVRAKAKTRSSRAGLQFPVGRVHRLLRKGNY; Bufo bufo gargarizans; Buforin 1)
  Activity: Gram+ & Gram−, Fungi

## BMAP-27: peptide, source Bovine (GRFKRFRKKFKKLFKKLSPVIPLLHLG; BMAP-27; listed as Bos taurus)
  Activity: Gram+ & Gram−, Fungi

## Opistoporin 2: peptide, source African yellow leg scorpion (GKVWDWIKSTAKKLWNSEPVKELKNTALNAAKNFVAEKIGATPS; Opistoporin 2; listed as Opistophthalmus carinatus)
[1]
  Activity: Gram+ & Gram−, Fungi,; also recorded: Mammalian cells

## AFP1: peptide, source Turnip (QKLCERPSGTWSGVCGNNNACKNQCIN; AFP1; listed as Brassica rapa)
  Activity: Fungi

## SEQ ID No. 47: synthetic antifungal peptide, Table 1 (WFKLRF)
  Activity: Fungi

## SEQ ID No. 191: synthetic antifungal peptide, Table 1 (WCLFHGEGCW; listed as Cryphonectria parasitica)
  Activity: Fungi

## SEQ ID No. 35: synthetic antifungal peptide, Table 1 (IFKLRF)
  Activity: Fungi

## RQRVEELSKFSKKGAAARRRK [Misgurin]
  Activity: Gram+ & Gram−, Fungi

## Ranatuerin-2CA: peptide, source Green frog (GLFLDTLKGAAKDVAGKLLEGLKCKIAGCKP; Rana clamitans; Ranatuerin-2CA)
  Activity: Gram+ & Gram−, Fungi

## SEQ ID No. 25: synthetic antifungal peptide, Table 1 (FRF)
  Activity: Fungi

## SEQ ID No. 184: synthetic antifungal peptide, Table 1 (YMPQGPRLNLWHW)
  Activity: Fungi

## SEQ ID No. 30: synthetic antifungal peptide, Table 1 (WLRF)
  Activity: Fungi

## Ginkbilobin: source Ginkgo (ANTAFVSSAHNTQKIPAGAPFNRNLRAMLADLRQNAAFAG; Ginkbilobin; listed as Ginkgo biloba)
  Activity: Gram+ & Gram−, Virus, Fungi

## SEQ ID No. 36: synthetic antifungal peptide, Table 1 (KRKLRF)
  Activity: Fungi

## BMAP-34: peptide, source Bovine (GLFRRLRDSIRRGQQKILEKARRIGERIKDIFRG; BMAP-34; listed as Bos taurus)
  Activity: Gram+ & Gram−, Fungi

## Histatin 1: peptide, source Crab eating macaque (DSHEERHHGRHGHHKYGRKFHEKHHSHRGYRSNYLYDN; Histatin 1; listed as Macaca fascicularis)
  Activity: Gram+ & Gram−, Fungi

## AMP1 (MJ-AMP1): peptide, source Garden four-o'clock (QCIGNGGRCNENVGPPYCCSGFCLRQPGQGYGYCKNR; antimicrobial peptidic agent1 (MJ-antimicrobial peptidic agent1); listed as Mirabilis jalapa)
  Activity: Gram+, Fungi

## Opistoporin 1: peptide, source African yellow leg scorpion (GKVWDWIKSTAKKLWNSEPVKELKNTALNAAKNLVAEKIGATPS; Opistoporin 1; listed as Opistophthalmus carinatus)
[1]
  Activity: Gram+ & Gram−, Fungi,; also recorded: Mammalian cells

## Histone H2B-1 (HLP-1) (Fragment): source Rainbow trout (PDPAKTAPKKGSKKAVTKA; Oncorhynchus mykiss; Histone H2B-1(HLP-1)(Fragment))
  Activity: Gram+ & Gram−, Fungi

## Gaegurin-1: peptide, source Wrinkled frog (SLFSLIKAGAKFLGKNLLKQGACYAACKASKQC; Gaegurin-1; listed as Rana rugosa)
  Activity: Gram+ & Gram−, Fungi

## Anti-fungal protein 1 (pafp-s): source Phytolacca Americana (AGCIKNGGRCNASAGPPYCCSSYCFQIAGQSYGVCKNR; listed as Phytolacca americana)
  Activity: Fungi

## Skin peptide tyrosine-tyrosine: peptide, source Two-colored leaf frog
  Activity: Gram+ & Gram−, Fungi

## SEQ ID No. 187: synthetic antifungal peptide, Table 1 (MPSNTQTSNSSMGVNGYSYCVVM; listed as Cryphonectria parasitica)
  Activity: Fungi

## HNP-1 Defensin: peptide, source Human
  Activity: Gram+ & Gram−, Virus, Fungi

## SEQ ID No. 178: synthetic antifungal peptide, Table 1 (WHWLQLKPGQPMY; listed as Saccharomyces cerevisiae)
  Activity: Fungi

## MUC7 20- Mer: peptide, source Human (LAHQKPFIRKSYKCLHKRCR; MUC7 20-Mer; listed as Homo sapiens)
  Activity: Gram+ & Gram−, Fungi

## Ponericin G!: peptide, source Ponerine ant (GWKDWAKKAGGWLKKKGPGMAKAALKAAMQ; Ponericin G1; listed as Pachycondyla goeldii)
[1]
  Activity: Gram+ & Gram−, Fungi

## SEQ ID No. 180: synthetic antifungal peptide, Table 1 (YNLEDHPQGDHPKLQLWHW)
  Activity: Fungi

## Lingual antimicrobial peptide: peptide, source Bovine (GFTQGVRNSQSCRRNKGICVPIRCPGSMRQIGTCLGAQVKCCRRK; Lingual antimicrobial peptide; listed as Bos taurus)
  Activity: Gram+ & Gram−, Fungi

## Tracheal antimicrobial peptide: peptide, source Bovine (NPVSCVRNKGICVPIRCPGSMKQIGTCVGRAVKCCRKK; Tracheal antimicrobial peptide; listed as Bos taurus)
  Activity: Gram+ & Gram−, Fungi

## Lactoferrin (Lf) peptide 2: antimicrobial peptide, Table 1 (FKCRRWQWRM; lactoferrin (Lf) peptide 2)
  Activity: Fungi

## SEQ ID No. 33: synthetic antifungal peptide, Table 1 (VFKLRF)
  Activity: Fungi

## Termicin: peptide, source Pseudacanthotermes spiniger (ACNFQSCWATCQAQHSIYFRRAFCDRSQCKCVFVRG; Pseudacanthotermes spiniger; Termicin)
  Activity: Gram+, Fungi

## Melanotropin alpha (Alpha-MSH): peptide, source Bovine (SYSMEHFRWGKPV; Melanotropin alpha (Alpha-MSH); listed as Bos taurus)
  Activity: Gram+, Fungi

## SEQ ID No. 179: synthetic antifungal peptide, Table 1 (WHWLSFSKGQPMY; listed as Saccharomyces kluyveri)
  Activity: Fungi

## Ranalexin: peptide, source Bull frog (FLGGLIKIVPAMICAVTKKC; Ranalexin; listed as Rana catesbeiana)
  Activity: Gram+ & Gram−, Fungi

## Penaeidin-4a: peptide, source Penoeid shrimp (HSSGYTRPLPKPSRPIFIRPIGCDVCYGIPSSTARLCCFRYGDCCHR; Penaeidin-4a; listed as Penaeus vannamei)
  Activity: Gram+ & Gram−, Fungi

## Tachystatin A: peptide, source Horseshoe Crab (YSRCQLQGFNCVVRSYGLPTIPCCRGLTCRSYFPGSTYGRCQRY; Tachystatin A Peptide; listed as Tachypleus tridentatus)
  Activity: Gram+ & Gram−, Fungi

## SEQ ID No. 31: synthetic antifungal peptide, Table 1 (FHLRF)
  Activity: Fungi

## Ranalexin-1CB: peptide, source Gree frog (FLGGLMKAFPAIICAVTKKC; Rana clamitans; Ranalexin-1CB)
  Activity: Gram+ & Gram−, Fungi

## Protegrin 3: peptide, source Pig (RGGGLCYCRRRFCVCVGR; Protegrin 3; listed as Sus scrofa)
  Activity: Gram+ & Gram−, Virus, Fungi

## Ib-AMP3: peptide, source Impatiens balsamina (RHRCCAWGPGRKYCKRWC; Ib-antimicrobial peptidic agent3; listed as Impatiens balsamina)
  Activity: Gram+, Fungi

## SEQ ID No. 183: synthetic antifungal peptide, Table 1 (YMPQGPKLQLWH)
  Activity: Fungi

## BMAP-28: peptide, source Bovine (GGLRSLGRKILRAWKKYGPIIVPIIRIG; BMAP-28; listed as Bos taurus)
  Activity: Gram+ & Gram−, Fungi

## Histatin 8: antimicrobial peptide, Table 1 (KFHEKHHSHRGY; Histatin 8)
  Activity: Gram+ & Gram−, Fungi
